Source: PubChem BioAssay AID608 (Sanford-Burnham Center for Chemical Genomics, 2007)
“And” between values parts separate entries of the source, which are not always exact repeats. Equal values may be shown once. The source made the active and inactive calls. No rule for the calls is given here.

Each molecule was assayed against Peptidyl-prolyl cis-trans isomerase FKBP1A (Homo sapiens) (UniProt P62942) (assay: FKBP12 binders, biophysical, NMR detection (AID 608)). Details: NMR binding, purified FKBP12.
Sequence of Peptidyl-prolyl cis-trans isomerase FKBP1A (Homo sapiens) (P62942 whole entry, looked up): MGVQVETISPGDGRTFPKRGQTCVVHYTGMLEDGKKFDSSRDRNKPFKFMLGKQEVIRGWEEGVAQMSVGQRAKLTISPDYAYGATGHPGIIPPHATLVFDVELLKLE

Compound	Kd
COn1c(=O)c(-c2ccco2)[n+]([O-])c2ccccc21	> 4 mM (inactive)
O=C1N=c2ccccc2=C1c1sc(=S)[nH]c1O	> 4 mM (inactive)
Nc1nc2ccc(N3CCOCC3)cc2s1	> 4 mM (inactive)
COc1ccccc1NC(N)=S	> 4 mM (inactive)
Nc1ccc(-n2cccc2)cc1	> 4 mM (inactive)
OCC1CCN(Cc2ccccc2)CC1	> 4 mM (inactive)
O=c1cnnc(N2CCCCC2)[nH]1	> 4 mM (inactive)
Clc1ccc(SCCn2cncn2)cc1	> 4 mM (inactive)
O=C1c2ccccc2C(=O)N1OCc1ccccc1	> 4 mM (inactive)
CC(=O)c1cccc(NC2=NCC(C)(C)S2)c1	> 4 mM (inactive)
Cc1ccccc1NC(=O)c1ccccc1	> 4 mM (inactive)
c1ccc2c(c1)CN1CCCC1=N2	> 4 mM (inactive)
c1cncc(Nc2nc(-c3cccnc3)cs2)c1	> 4 mM (inactive)
NC(=O)C1CCN(C2CC(=O)NC2=O)CC1 (centres undefined)	> 4 mM (inactive)
Cn1cnc2c(Cl)ncnc21	> 4 mM (inactive)
CCCCCCCCCCCCCCC(C(=O)O)C(O)(CC(=O)OC)C(=O)O (centres undefined)	> 4 mM (inactive)
CCOC(=O)c1cc(C)n(-n2cnnc2)c1C	> 4 mM (inactive)
COc1cc2c(cc1NS(=O)(=O)N1CCCCC1)oc1ccccc12	> 4 mM (inactive)
CSc1ccc(/C=N/n2c(C)nnc2C)cc1	> 4 mM (inactive)
COc1cc(OC)c(-c2c(OC)cc(OC)cc2OC)c(OC)c1	> 4 mM (inactive)
COc1ccc(/C=C2\NC(=S)N(C)C2=O)cc1O	> 4 mM (inactive)
COc1ccccc1NC(C)=O	> 4 mM (inactive)

Compound	Kd
COc1ccc2[nH]cc(CCN(C)C)c2c1	> 4 mM (inactive)
Cc1nnsc1C(=O)N(C)c1ccccc1	> 4 mM (inactive)
O=C1C=CC2=C3c4cc(O)c(O)cc4CC3(O)COC2=C1O (centres undefined)	> 4 mM (inactive)
CC1(C)CC(=O)c2sc(N)nc2C1	> 4 mM (inactive)
Fc1cccc(Cl)c1CN1CCNCC1	> 4 mM (inactive)
CC(=O)Nc1ccc(NC(=O)N2CCOCC2)cc1	> 4 mM (inactive)
Cc1nc2cc(Cl)ccc2n1CCO	> 4 mM (inactive)
CC(=O)c1c(C)n(O)c2ccc3nonc3c12	> 4 mM (inactive)
CC1(C)C(=O)[C@@H]2C[C@@]3(O)C4=CC(=O)O[C@@H](c5ccoc5)[C@]4(C)CCC3C(C)(C2=O)[C@H]1CC(=O)O (some centres undefined)	> 4 mM (inactive)
CCC(C)C(NC)C(=O)O (centres undefined)	> 4 mM (inactive)
CC1CCN(C(=O)c2ccc3c(c2)OCCO3)CC1	> 4 mM (inactive)
O=C(c1ccco1)N1CCCN(C(=O)c2ccco2)CC1	0.072 mM and 0.277 mM
Cc1cc(NC(=O)CS(=O)(=O)c2ccccc2)no1	> 4 mM (inactive)
NC(=O)Cn1cnc2c(cnn2-c2ccccc2)c1=O	> 4 mM (inactive)
Cc1cc2nc(SCC(=O)O)nc(C)c2cc1C	> 4 mM (inactive)
NC(=O)CC[C@H](N)C(=O)O	> 4 mM (inactive)
O=S(=O)(N1CCOCC1)n1c(Cc2ccccc2)nc2ccccc21	inactive
Cc1ccc(CN2CCNC(=O)C2CC(=O)O)o1 (centres undefined)	> 4 mM (inactive)
O=C1C(=O)N(CN2CCN(CCO)CC2)c2ccccc21	> 4 mM (inactive)
Cc1cc(=O)oc2cc(O)c(O)cc12	> 4 mM (inactive)
Cc1n[nH]c(=O)c2ncn(C)c12	> 4 mM (inactive)
Cc1occc1C(=O)Nc1nccs1	> 4 mM (inactive)

Compound	Kd
O=C(C1COc2ccccc2O1)N1CCOCC1 (centres undefined)	inactive
O=C(O)CN1CCNCC1	> 4 mM (inactive)
CC(C)c1ccc(SCC(=O)N2CCOCC2C(=O)O)cc1 (centres undefined)	0.426 mM
O=C(NCc1ccccc1Br)c1ccco1	> 4 mM (inactive)
O=C1NC(=S)N/C1=C\c1ccccc1F	> 4 mM (inactive)
COc1ccc(Cc2nccc3cc(OC)c(OC)cc23)cc1OC	> 4 mM (inactive)
Cn1c(SCC(N)=O)nc2ccccc2c1=O	> 4 mM (inactive)
Cc1cc(=O)n2nc(-c3ccccc3)sc2n1	> 4 mM (inactive)
O=c1cnnc(Nc2ccc(O)cc2)[nH]1	> 4 mM (inactive)
CC(=O)NC(=S)Nc1ccc(S(N)(=O)=O)cc1	> 4 mM (inactive)
COc1c2occc2cc2ccc(=O)oc12	> 4 mM (inactive)
Cc1cc(C)n(-c2nncn2N)n1	> 4 mM (inactive)
Fc1ccc(NC2=NCCS2)cc1Cl	> 4 mM (inactive)
O=C(c1ccc(N2CCNCC2)cc1)c1cccnc1	> 4 mM (inactive)
O=c1[nH]cc(CN2CCOCC2)c(=O)[nH]1	> 4 mM (inactive)
CCOCC(=O)N1CCc2ccccc21	> 4 mM (inactive)
CN1CCC(NC(=O)c2ccccc2[N+](=O)[O-])CC1	> 4 mM (inactive)
NC(=O)C(=O)Nc1nc(-c2ccccc2)cs1	> 4 mM (inactive)
COc1ccc(C2CC(=O)NN2)cc1OC1CCCC1 (centres undefined)	> 4 mM (inactive)
COc1ccc2c(c1)OCC(Cc1ccc(OC)c(OC)c1)C2=O (centres undefined)	> 4 mM (inactive)
